Patent US20180055032A1, “ODORS FOR PSYLLID TRAPPING, REPELLING AND CONTROL” (The Regents of the University of California, priority 2011, published 2018)

Assays:
Format in all cases: cell-based, Diaphorina citri
[1] = tested on: neuron 7B (rhinarial plate on flagellomere 7); conditions: for odor response (frequency of action potentials during stimulus minus baseline), 7B: Table 1, odor diluted to 1%, 50 μL in cartridge; on response to ultra-prolonged activators, 7B: key: 0, no response; +, >50 spikes/second; ++, >100 spikes/second; +++, >150 spikes/second
[2] = tested on: neuron 2A (rhinarial plate on flagellomere 2); assay: single-sensillum electrophysiology, odor response of neuron 2A; conditions: for odor response (frequency of action potentials during stimulus minus baseline), 2A: Table 1, odor diluted to 1%, 50 μL in cartridge; for response to inhibitory odors, 2A: Table 2, odor diluted to 10^−2, 50 μL in cartridge; on all read-outs here: key: 0, no response; +, >50 spikes/second; ++, >100 spikes/second; +++, >150 spikes/second
[3] = tested on: neuron 6B (rhinarial plate on flagellomere 6); assay: single-sensillum electrophysiology, odor response of neuron 6B; conditions: for odor response (frequency of action potentials during stimulus minus baseline), 6B: Table 1, odor diluted to 1%, 50 μL in cartridge; for response to inhibitory odors, 6B: Table 2, odor diluted to 10^−2, 50 μL in cartridge
[4] = tested on: neuron 7C (rhinarial plate on flagellomere 7); assay: single-sensillum electrophysiology, odor response of neuron 7C; conditions: for odor response (frequency of action potentials during stimulus minus baseline), 7C: Table 1, odor diluted to 1%, 50 μL in cartridge; for response to inhibitory odors, 7C: Table 2, odor diluted to 10^−2, 50 μL in cartridge
[5] = tested on: neuron 4A (rhinarial plate on flagellomere 4); assay: single-sensillum electrophysiology, odor response of neuron 4A; conditions: for odor response (frequency of action potentials during stimulus minus baseline), 4A: Table 1, odor diluted to 1%, 50 μL in cartridge; for response to inhibitory odors, 4A: Table 2, odor diluted to 10^−2, 50 μL in cartridge; on response to ultra-prolonged activators, 4A: key: 0, no response; +, >50 spikes/second; ++, >100 spikes/second; +++, >150 spikes/second
[6] = tested on: neuron 2C (rhinarial plate on flagellomere 2); assay: single-sensillum electrophysiology, odor response of neuron 2C; conditions: for odor response (frequency of action potentials during stimulus minus baseline), 2C: Table 1, odor diluted to 1%, 50 μL in cartridge
[7] = tested on: neuron 4C (rhinarial plate on flagellomere 4); assay: single-sensillum electrophysiology, odor response of neuron 4C; conditions: for odor response (frequency of action potentials during stimulus minus baseline), 4C: Table 1, odor diluted to 1%, 50 μL in cartridge; for response to inhibitory odors, 4C: Table 2, odor diluted to 10^−2, 50 μL in cartridge
[8] = tested on: neuron 2B (rhinarial plate on flagellomere 2); assay: single-sensillum electrophysiology, odor response of neuron 2B; conditions: for odor response (frequency of action potentials during stimulus minus baseline), 2B: Table 1, odor diluted to 1%, 50 μL in cartridge; for response to inhibitory odors, 2B: Table 2, odor diluted to 10^−2, 50 μL in cartridge
[9] = tested on: neuron 4B (rhinarial plate on flagellomere 4); conditions: for odor response (frequency of action potentials during stimulus minus baseline), 4B: Table 1, odor diluted to 1%, 50 μL in cartridge; for response to inhibitory odors, 4B: Table 2, odor diluted to 10^−2, 50 μL in cartridge
[10] = tested on: neuron 7A (rhinarial plate on flagellomere 7); assay: single-sensillum electrophysiology, odor response of neuron 7A; conditions: for odor response (frequency of action potentials during stimulus minus baseline), 7A: Table 1, odor diluted to 1%, 50 μL in cartridge; for response to inhibitory odors, 7A: Table 2, odor diluted to 10^−2, 50 μL in cartridge; on all read-outs here: key: 0, no response; +, >50 spikes/second; ++, >100 spikes/second; +++, >150 spikes/second
[11] = tested on: neuron 6C (rhinarial plate on flagellomere 6); assay: single-sensillum electrophysiology, odor response of neuron 6C; conditions: for odor response (frequency of action potentials during stimulus minus baseline), 6C: Table 1, odor diluted to 1%, 50 μL in cartridge; for response to inhibitory odors, 6C: Table 2, odor diluted to 10^−2, 50 μL in cartridge
[12] = tested on: neuron 6A (rhinarial plate on flagellomere 6); assay: single-sensillum electrophysiology, odor response of neuron 6A; conditions: for odor response (frequency of action potentials during stimulus minus baseline), 6A: Table 1, odor diluted to 1%, 50 μL in cartridge; for response to inhibitory odors, 6A: Table 2, odor diluted to 10^−2, 50 μL in cartridge
[13] = Table 3, 10^−2 in paraffin oil, 50 μL, odor puff of 0.5 sec
[14] = Table 2, odor diluted to 10^−2, 50 μL in cartridge

SMILES: C=C(C)C1CC=C(C)CC1 (single isomer, unassigned; (+)) [(+)-limonene]
- odor response (frequency of action potentials during stimulus minus baseline), 7B [1]: 0
- odor response (frequency of action potentials during stimulus minus baseline), 2A [2]: 0
- odor response (frequency of action potentials during stimulus minus baseline), 6B [3]: + (+, >50 spikes/second)
- odor response (frequency of action potentials during stimulus minus baseline), 7C [4]: 0
- odor response (frequency of action potentials during stimulus minus baseline), 4A [5]: 0
- odor response (frequency of action potentials during stimulus minus baseline), 2C [6]: + (+, >50 spikes/second)
- odor response (frequency of action potentials during stimulus minus baseline), 4C [7]: 0
- odor response (frequency of action potentials during stimulus minus baseline), 2B [8]: 0
- odor response (frequency of action potentials during stimulus minus baseline), 4B [9]: + (+, >50 spikes/second)
- odor response (frequency of action potentials during stimulus minus baseline), 7A [10]: 0
- odor response (frequency of action potentials during stimulus minus baseline), 6C [11]: 0
- odor response (frequency of action potentials during stimulus minus baseline), 6A [12]: 0

SMILES: CCCCCCO [1-hexanol]
- odor response (frequency of action potentials during stimulus minus baseline), 7B [1]: 0
- response to ultra-prolonged activators, 7B [1, 13]: 0
- odor response (frequency of action potentials during stimulus minus baseline), 2A [2]: 0
- response to ultra-prolonged activators, 2A [2, 13]: 0
- odor response (frequency of action potentials during stimulus minus baseline), 6B [3]: + (+, >50 spikes/second)
- response to ultra-prolonged activators, 6B [3, 13]: + (+, >50 spikes/second)
- odor response (frequency of action potentials during stimulus minus baseline), 7C [4]: 0
- response to ultra-prolonged activators, 7C [4, 13]: 0
- odor response (frequency of action potentials during stimulus minus baseline), 4A [5]: 0
- response to ultra-prolonged activators, 4A [5, 13]: 0
- odor response (frequency of action potentials during stimulus minus baseline), 2C [6]: 0
- response to ultra-prolonged activators, 2C [6, 13]: 0
- odor response (frequency of action potentials during stimulus minus baseline), 4C [7]: 0
- response to ultra-prolonged activators, 4C [7, 13]: 0
- odor response (frequency of action potentials during stimulus minus baseline), 2B [8]: 0
- response to ultra-prolonged activators, 2B [8, 13]: 0
- odor response (frequency of action potentials during stimulus minus baseline), 4B [9]: + (+, >50 spikes/second)
- response to ultra-prolonged activators, 4B [9, 13]: + (+, >50 spikes/second)
- odor response (frequency of action potentials during stimulus minus baseline), 7A [10]: 0
- response to ultra-prolonged activators, 7A [10, 13]: 0
- odor response (frequency of action potentials during stimulus minus baseline), 6C [11]: 0
- response to ultra-prolonged activators, 6C [11, 13]: 0
- odor response (frequency of action potentials during stimulus minus baseline), 6A [12]: 0
- response to ultra-prolonged activators, 6A [12, 13]: 0

SMILES: CCCCCCCCO [1-octanol]
- odor response (frequency of action potentials during stimulus minus baseline), 7B [1]: 0
- odor response (frequency of action potentials during stimulus minus baseline), 2A [2]: 0
- odor response (frequency of action potentials during stimulus minus baseline), 6B [3]: + (+, >50 spikes/second)
- odor response (frequency of action potentials during stimulus minus baseline), 7C [4]: 0
- odor response (frequency of action potentials during stimulus minus baseline), 4A [5]: 0
- odor response (frequency of action potentials during stimulus minus baseline), 2C [6]: 0
- odor response (frequency of action potentials during stimulus minus baseline), 4C [7]: 0
- odor response (frequency of action potentials during stimulus minus baseline), 2B [8]: 0
- odor response (frequency of action potentials during stimulus minus baseline), 4B [9]: + (+, >50 spikes/second)
- odor response (frequency of action potentials during stimulus minus baseline), 7A [10]: 0
- odor response (frequency of action potentials during stimulus minus baseline), 6C [11]: 0
- odor response (frequency of action potentials during stimulus minus baseline), 6A [12]: 0

SMILES: C=CC(O)CCCCC (stereo not drawn) [1-octen-3-ol]
- odor response (frequency of action potentials during stimulus minus baseline), 7B [1]: 0
- odor response (frequency of action potentials during stimulus minus baseline), 2A [2]: 0
- odor response (frequency of action potentials during stimulus minus baseline), 6B [3]: + (+, >50 spikes/second)
- odor response (frequency of action potentials during stimulus minus baseline), 7C [4]: 0
- odor response (frequency of action potentials during stimulus minus baseline), 4A [5]: 0
- odor response (frequency of action potentials during stimulus minus baseline), 2C [6]: 0
- odor response (frequency of action potentials during stimulus minus baseline), 4C [7]: 0
- odor response (frequency of action potentials during stimulus minus baseline), 2B [8]: 0
- odor response (frequency of action potentials during stimulus minus baseline), 4B [9]: 0
- odor response (frequency of action potentials during stimulus minus baseline), 7A [10]: 0
- odor response (frequency of action potentials during stimulus minus baseline), 6C [11]: 0
- odor response (frequency of action potentials during stimulus minus baseline), 6A [12]: 0

SMILES: CCCCCC(C)=O [2-heptanone]
- odor response (frequency of action potentials during stimulus minus baseline), 7B [1]: 0
- odor response (frequency of action potentials during stimulus minus baseline), 2A [2]: 0
- odor response (frequency of action potentials during stimulus minus baseline), 6B [3]: + (+, >50 spikes/second)
- odor response (frequency of action potentials during stimulus minus baseline), 7C [4]: 0
- odor response (frequency of action potentials during stimulus minus baseline), 4A [5]: 0
- odor response (frequency of action potentials during stimulus minus baseline), 2C [6]: + (+, >50 spikes/second)
- odor response (frequency of action potentials during stimulus minus baseline), 4C [7]: 0
- odor response (frequency of action potentials during stimulus minus baseline), 2B [8]: 0
- odor response (frequency of action potentials during stimulus minus baseline), 4B [9]: + (+, >50 spikes/second)
- odor response (frequency of action potentials during stimulus minus baseline), 7A [10]: 0
- odor response (frequency of action potentials during stimulus minus baseline), 6C [11]: 0
- odor response (frequency of action potentials during stimulus minus baseline), 6A [12]: 0

SMILES: CCCC(C)=O [2-pentanone]
- odor response (frequency of action potentials during stimulus minus baseline), 7B [1]: 0
- odor response (frequency of action potentials during stimulus minus baseline), 2A [2]: 0
- odor response (frequency of action potentials during stimulus minus baseline), 6B [3]: + (+, >50 spikes/second)
- odor response (frequency of action potentials during stimulus minus baseline), 7C [4]: 0
- odor response (frequency of action potentials during stimulus minus baseline), 4A [5]: 0
- odor response (frequency of action potentials during stimulus minus baseline), 2C [6]: 0
- odor response (frequency of action potentials during stimulus minus baseline), 4C [7]: 0
- odor response (frequency of action potentials during stimulus minus baseline), 2B [8]: 0
- odor response (frequency of action potentials during stimulus minus baseline), 4B [9]: + (+, >50 spikes/second)
- odor response (frequency of action potentials during stimulus minus baseline), 7A [10]: 0
- odor response (frequency of action potentials during stimulus minus baseline), 6C [11]: 0
- odor response (frequency of action potentials during stimulus minus baseline), 6A [12]: 0

SMILES: CCCCC(=O)O [pentanoic acid]
- response to inhibitory odors, 2A [2]: 0
- response to inhibitory odors, 6B [3]: 0
- response to inhibitory odors, 7C [4]: 0
- response to inhibitory odors, 4A [5]: 0
- response to inhibitory odors, 2C [6, 14]: 0
- response to inhibitory odors, 4C [7]: 0
- response to inhibitory odors, 2B [8]: 0
- response to inhibitory odors, 4B [9]: 0
- response to inhibitory odors, 7A [10]: 0
- response to inhibitory odors, 6C [11]: 0
- response to inhibitory odors, 6A [12]: 0

SMILES: C=C(C)C1CC=C(C=O)CC1 (stereo not drawn) [perillaldehyde]
- odor response (frequency of action potentials during stimulus minus baseline), 7B [1]: 0
- response to inhibitory odors, 7B [1, 14]: 0
- odor response (frequency of action potentials during stimulus minus baseline), 2A [2]: 0
- response to inhibitory odors, 2A [2]: 0
- odor response (frequency of action potentials during stimulus minus baseline), 6B [3]: + (+, >50 spikes/second)
- response to inhibitory odors, 6B [3]: 0
- odor response (frequency of action potentials during stimulus minus baseline), 7C [4]: 0
- response to inhibitory odors, 7C [4]: 0
- odor response (frequency of action potentials during stimulus minus baseline), 4A [5]: 0
- response to inhibitory odors, 4A [5]: 0
- odor response (frequency of action potentials during stimulus minus baseline), 4C [7]: 0
- response to inhibitory odors, 4C [7]: 0
- odor response (frequency of action potentials during stimulus minus baseline), 2B [8]: 0
- response to inhibitory odors, 2B [8]: 0
- odor response (frequency of action potentials during stimulus minus baseline), 4B [9]: + (+, >50 spikes/second)
- response to inhibitory odors, 4B [9]: 0
- odor response (frequency of action potentials during stimulus minus baseline), 7A [10]: 0
- response to inhibitory odors, 7A [10]: 0
- odor response (frequency of action potentials during stimulus minus baseline), 6C [11]: 0
- response to inhibitory odors, 6C [11]: 0
- odor response (frequency of action potentials during stimulus minus baseline), 6A [12]: 0
- response to inhibitory odors, 6A [12]: 0
